The values that follow are results of earlier work, collected in patent publication US20230027192A1, “METHODS OF USING SOLUBLE SOLID DISPERSIONS OF RIFAXIMIN” (United States Government as Represented by the Department …, priority 2019, published 2023).

Data set [1] relates to secondary/primary bile acid ratio. The note with it: patients with compensated cirrhosis.
For data set [2], the system named is hepatic encephalopathy (HE). To be noted: in cirrhosis.

Consider `CO[C@H]1/C=C/O[C@@]2(C)Oc3c(C)c(O)c4c(O)c(c5c(nc6cc(C)ccn65)c4c3C2=O)NC(=O)/C(C)=C\C=C\[C@H](C)[C@H](O)[C@@H](C)[C@@H](O)[C@@H](C)[C@H](OC(C)=O)[C@@H]1C` [rifaximin], for which the “secondary/primary bile acid ratio” value in data set [1] was “reduction”. The “risk of HE recurrence and HE-related hospitalizations” value in data set [2] is recorded as “reduces the risk”.
